“Also recorded” adds a separate entry of the source.
System: MDA-MB-231 cells
Assay: MDA-MB-231 proliferation culture, cell counts with cisplatin and/or EMF exposure
Type: cell-based, human
Details: for reduction of cell number (cell count): cisplatin 20 μM, positive control, no EMF exposure, 5 days culture
Protocol: MDA-MB-231 cells, a human triple-negative breast cancer cell line, were obtained at passage 40 (Sigma: 92020424). The culture media used was high glucose DMEM (Gibco: 31053-028) supplemented with 1% GlutaMAX™ (Gibco: 35050-061) and 10% fetal bovine serum (Gibco).
Cells were thawed from frozen (−150° C.), placed in a tube with warm media and spun down for 5 minutes at 240×g. After pelleting the cells, the media was removed, and the cells resuspended and seeded into a T225 flask with 45 mL of media. Cells were placed in an incubator set to 37° C. and 5.0% CO2. Media was exchanged every 2-3 days. Cells proliferated until they reached 80-90% confluency. Upon reaching this threshold. cells were passaged. Cells were washed with DPBS and detached using TrypLE Express (Gibco). The detached cells were neutralized, centrifuged, and seeded in culture vessels at a density of 10,000 cells/cm^2.
For experimental harvests cells were detached as when passaging and neutralized with media. A 100 μL aliquot was taken and used for cell counts. Cells were counted on a NC-200 Nucleocounter (ChemoMetec). The remaining dissociated cells were centrifuged for 2 minutes at 4000 RPM. Following centrifugation, the supernatant was aspirated, and the cell pellets were immediately frozen at −80° C. for future RNA extraction.
Cisplatin is a platinum-based chemotherapy drug that inhibits DNA synthesis. Cisplatin is used in the treatment of many cancers, including breast cancer. Cisplatin (Millipore-Sigma: 232120) was dissolved in DPBS with 140 mM NaCl at a concentration of 1 mg/mL and stored at room temperature, protected from light. The solution was further diluted in culture media to obtain the desired concentration for experiments. DPBS with 140 mM NaCl was used as a vehicle control. Cisplatin at 20 μM was used as a positive control as this concentration reduced the cell number by more than 90%. Lower concentrations of 2 μM and 0.667 μM (one tenth and one thirtieth the concentration of the positive control, respectively) were used in combination with PEMF stimulation.
Cells were exposed, as previously described for mesenchymal stem cells, to a spatially uniform, time-varying magnetic field using Helmholtz coils. A description of the exposure system (coils, signal generator, incubators, etc.) is described in Example One.
Table 3 contains the parameters describing four different fields covering a wide range of shapes, intensities and frequencies. The two sinusoids are simple sine waves with no offset. The pulse waveform has a 10% duty cycle, creating sudden, large changes in the field's magnetic flux density (B). Finally, Experiment 4 consists of pairs of triangular waves with increasing separation equivalent to a decreasing frequency from 36 Hz to 10 Hz. The waveform consists of 15 pairs and has a period of approximately 900 ms. Positive results with Experiments 3 and 4 (described below) ledto repeating the exposures with the addition of a chemotherapy drug cisplatin). Additionally, Experiments 3 and 4 were also performed with “healthy” chondrocytes.
Chemotherapy drugs, including cisplatin, are a commonplace and proven method of treating cancer tumours despite a plethora of side effects. Large doses of these drugs can be a significant monetary and health concern for many patients so any method of reducing the dosage with an adjunct therapy is welcome. To test the combined effect of cisplatin and EMF exposure, two low concentrations (2 μM and 0.667 μM) of cisplatin were added to the culture media of MDA-MB-231 cells subjected to Experiment 3 and 4 exposures. Additionally, cells were cultured with 20 μM of cisplatin and no exposure as a “positive” control. […] The exposed cell groups are plotted relative to the unstimulated vehicle sample and when cultured with the vehicle show the same decrease in cell count as in Figure H (without vehicle). […]

N.N.[Cl][Pt][Cl] [cisplatin, Cisplatin]
effect on cell growth of adding EMF exposure to cisplatin (cisplatin 2 μM and 0.667 μM plus EMF exposure Experiment 3 or 4, statistically significant vs cisplatin alone): further inhibited
effect on proliferation / cell count (cisplatin 20 μM (high concentration), no EMF stimulation): drastic impact on the cell count; also recorded: inhibitory
reduction of cell number (cell count): 90%
reduction of cell number (cell count) (listed as Cisplatin): more than 90%
reduction of cell counts by combined treatment (cisplatin + EMF exposure) (cisplatin at 10% of positive control concentration (2 μM) with EMF exposure (Experiment 3 or 4), relative to negative control, 5 days): more than 80%
effect on normalized cell count (low concentrations of cisplatin (2 μM and 0.667 μM), relative to unstimulated vehicle): significantly lowered cell counts

— patent US20240416137A1, “PERSONALIZED BIOELECTROMAGNETIC THERAPEUTICS” (OCTANE INNOVATION INC., priority 2021, published 2024)
